The values that follow come from patent publication US20220332699A1 (SAGE THERAPEUTICS, INC., priority 2019, published 2022).

Bounds are passed on as bounds.

Sequence of CYP46A1 (Q9Y6A2 whole entry): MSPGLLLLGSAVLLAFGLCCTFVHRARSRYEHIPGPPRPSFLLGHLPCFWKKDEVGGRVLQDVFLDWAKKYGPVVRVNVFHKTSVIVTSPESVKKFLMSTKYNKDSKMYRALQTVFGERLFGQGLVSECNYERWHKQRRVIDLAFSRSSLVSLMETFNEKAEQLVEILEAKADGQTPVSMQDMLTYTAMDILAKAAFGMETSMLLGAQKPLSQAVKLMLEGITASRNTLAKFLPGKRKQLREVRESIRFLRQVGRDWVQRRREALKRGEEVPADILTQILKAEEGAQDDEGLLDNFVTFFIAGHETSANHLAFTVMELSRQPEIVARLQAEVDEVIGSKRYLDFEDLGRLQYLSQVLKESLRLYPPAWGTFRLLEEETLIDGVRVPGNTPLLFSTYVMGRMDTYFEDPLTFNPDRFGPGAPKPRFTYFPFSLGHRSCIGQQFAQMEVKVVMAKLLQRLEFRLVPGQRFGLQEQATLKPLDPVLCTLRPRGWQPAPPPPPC

The assay deals with CYP46A1 (Homo sapiens, UniProt Q9Y6A2). In words: CYP46A1 Enzyme Assay 2 (testosterone substrate, HPLC-MS). As to conditions: read-out: IC50 (CYP46A1 inhibitory activity). In kind it is biochemical. The protocol:
Briefly, in a 384-well plate format, 10 μL per well of an enzyme-substrate mixture of CYP46A1 (5 μM final concentration) and Testosterone ([…] final concentration) were dispensed to wells containing test compound. For CYP46A1 titration, 5 μL per well of serially diluted CYP46A1 (concentrations including 10 μM, 5 μM, and 2.5 μM) and Testosterone (concentration of […]) were dispensed. For Testosterone titration, 5 μL per well of serially diluted Testosterone (concentrations including 10 μM, 5 μM, and 2.5 μM) and CYP46A1 (concentration of 5 μM) were dispensed. The plates were centrifuged at 1000 rpm for 30 seconds, and then sealed and incubated at 37° C. for 30 minutes. The plate was removed from the incubator, and then 10 μL per well of NADPH-generating system were dispensed to initiate the reaction. The plates were incubated at 37° C. for 15 minutes, added with 80 μL per well of 100% methanol consisting 1 ng/ml diclofenac as internal standard, and then transferred for HPLC-MS.
In the case of `N#CC1(Cc2ccc(F)cc2)CCN(C(=O)c2cccnc2-c2cccnc2)CC1` [Compound A18, 1-([2,3′-bipyridine]-3-carbonyl)-4-(4-fluorobenzyl)piperidine-4-carbonitrile], the IC50 (commonly the concentration at which inhibition is half-maximal) was > 1000 nM.

On to `N#CC1(Cc2ccc(-c3ccccc3)cc2)CCN(C(=O)c2cccnc2-c2ccncc2)CC1` [Compound A19, 4-([1,1′-biphenyl]-4-ylmethyl)-1-([2,4′-bipyridine]-3-carbonyl)piperidine-4-carbonitrile], for which the IC50 was < 100 nM. Regarding `N#CC1(Cc2ccccc2Cl)CCN(C(=O)c2cccnc2-c2ccncc2)CC1` [Compound A21, 1-([2,4′-bipyridine]-3-carbonyl)-4-(2-chlorobenzyl)piperidine-4-carbonitrile], the IC50 is < 100 nM. In the case of `N#CC1(Cc2cccc(Cl)c2)CCN(C(=O)c2cccnc2-c2ccncc2)CC1` [Compound A22], the IC50 was < 100 nM. The figure for `N#Cc1ccc(CC2(C#N)CCN(C(=O)c3cccnc3-c3ccncc3)CC2)cc1` [Compound A27, 1-([2,4′-bipyridine]-3-carbonyl)-4-(4-cyanobenzyl)piperidine-4-carbonitrile] is < 100 nM; for `N#CC1(Cc2ccccc2)CCN(C(=O)c2cccnc2-c2ccncn2)CC1` [Compound A31, 4-benzyl-1-(2-(pyrimidin-4-yl)nicotinoyl)piperidine-4-carbonitrile] it is < 100 nM; for `Cc1ccc(CC2(C#N)CCN(C(=O)c3cccnc3-c3ccncn3)CC2)cc1` [Compound A35, 4-(4-methylbenzyl)-1-(2-(pyrimidin-4-yl)nicotinoyl)piperidine-4-carbonitrile] it is < 100 nM.

Consider `N#CC1(Cc2ccc(Cl)cc2)CCN(C(=O)c2cccnc2-c2ccncn2)CC1` [Compound A37, 4-(4-chlorobenzyl)-1-(2-(pyrimidin-4-yl)nicotinoyl)piperidine-4-carbonitrile], for which the IC50 is < 100 nM.

`N#CC1(Cc2ccc(C(F)(F)F)cc2)CCN(C(=O)c2cccnc2-c2ccncn2)CC1` [Compound A40, 1-(2-(pyrimidin-4-yl)nicotinoyl)-4-(4-(trifluoromethyl)benzyl)piperidine-4-carbonitrile]: the IC50 was < 100 nM. The figure for `C[C@@H](c1ccc(F)cc1)C1(C#N)CCN(C(=O)c2cccnc2-c2ccncn2)CC1` [Compound A44, (S)-4-(1-(4-fluorophenyl)ethyl)-1-(2-(pyrimidin-4-yl)nicotinoyl)piperidine-4-carbonitrile] is < 100 nM; for `C[C@H](c1ccc(F)cc1)C1(C#N)CCN(C(=O)c2cccnc2-c2ccncn2)CC1` [Compound A45, (R)-4-(1-(4-fluorophenyl)ethyl)-1-(2-(pyrimidin-4-yl)nicotinoyl)piperidine-4-carbonitrile] it is < 100 nM. Under `N#CC1(CC2CCOCC2)CCN(C(=O)c2cccnc2-c2ccncn2)CC1` [Compound A48, 1-(2-(pyrimidin-4-yl)nicotinoyl)-4-((tetrahydro-2H-pyran-4-yl)methyl)piperidine-4-carbonitrile] stands 100 to 1000 nM; under `N#CC1(Cc2ccc(F)cc2F)CCN(C(=O)c2cccnc2-c2ccncn2)CC1` [Compound A51, 4-(2,4-difluorobenzyl)-1-(2-(pyrimidin-4-yl)nicotinoyl)piperidine-4-carbonitrile], < 100 nM. Take `N#CC1(CC2CC(F)(F)C2)CCN(C(=O)c2cccnc2-c2ccncn2)CC1` [Compound A54, 4-((3,3-difluorocyclobutyl)methyl)-1-(2-(pyrimidin-4-yl)nicotinoyl)piperidine-4-carbonitrile]: the IC50 lay in the range of 100 to 1000 nM.

On to `N#CC1(Cc2ccc(F)cc2)CCN(C(=O)c2cccnc2-c2cnco2)CC1` [Compound A56, 4-(4-fluorobenzyl)-1-(2-(oxazol-5-yl)nicotinoyl)piperidine-4-carbonitrile], for which the IC50 fell in the range of 100 to 1000 nM. The figure for `N#CC1(CC2CC2)CCN(C(=O)c2cccnc2-c2ccncn2)CC1` [Compound A58, 4-(cyclopropylmethyl)-1-(2-(pyrimidin-4-yl)nicotinoyl)piperidine-4-carbonitrile] is 100 to 1000 nM. Under `COc1ccc(CC2(C#N)CCN(C(=O)c3cccnc3-c3ccncn3)CC2)cc1` [Compound A63, 4-(4-methoxybenzyl)-1-(2-(pyrimidin-4-yl)nicotinoyl)piperidine-4-carbonitrile] stands < 100 nM. The figure for `N#CC1(Cc2ccncc2)CCN(C(=O)c2cccnc2-c2ccncc2)CC1` [Compound A65, 1-([2,4′-Bipyridine]-3-carbonyl)-4-(pyridin-4-ylmethyl)piperidine-4-carbonitrile] is 100 to 1000 nM.

As for `N#CC1(Cc2ccc(F)cc2)CCN(C(=O)c2cccnc2-c2cncnc2)CC1` [Compound A66, 4-(4-fluorobenzyl)-1-(2-(pyrimidin-5-yl)nicotinoyl)piperidine-4-carbonitrile], the IC50 lay within 100 to 1000 nM. The figure for `N#CC1(CCCCc2ccccc2)CCN(C(=O)c2cccnc2-c2ccncc2)CC1` [Compound A67, 1-([2,4′ bipyridine]-3-carbonyl)-4-(4-phenylbutyl)piperidine-4-carbonitrile] is < 100 nM; for `N#CC1(CCc2ccccc2)CCN(C(=O)c2cccnc2-c2ccncc2)CC1` [Compound A68, 1-([2,4′-bipyridine]-3-carbonyl)-4-phenethylpiperidine-4-carbonitrile] it is 100 to 1000 nM. Under `N#CC1(Cc2ccc(F)c(F)c2)CCN(C(=O)c2cccnc2-c2ccncc2)CC1` [Compound A69, 1-([2,4′-bipyridine]-3-carbonyl)-4-(3,4-difluorobenzyl)piperidine-4-carbonitrile] stands < 100 nM; under `N#CC1(Cc2cc(F)cc(F)c2)CCN(C(=O)c2cccnc2-c2ccncc2)CC1` [Compound A70, 1-([2,4′-bipyridine]-3-carbonyl)-4-(3,5-difluorobenzyl)piperidine-4-carbonitrile], < 100 nM. Under `N#CC1(CCCc2ccccc2)CCN(C(=O)c2cccnc2-c2ccncc2)CC1` [Compound A71, 1-{[2,4′-bipyridine]-3-carbonyl}-4-(3-phenylpropyl)piperidine-4-carbonitrile] stands < 100 nM.

In the case of `N#CC1(Cc2cccnc2)CCN(C(=O)c2cccnc2-c2ccncc2)CC1` [Compound A72, 1-{[2,4′-bipyridine]-3-carbonyl}-4-[(pyridin-3-yl)methyl]piperidine-4-carbonitrile], the IC50 is 100 to 1000 nM. The figure for `N#CC1(Cc2ccc(F)cc2)CCN(C(=O)c2cccnc2-n2cncn2)CC1` [Compound A74, 1-(2-(1H-1,2,4-triazol-1-yl)nicotinoyl)-4-(4-fluorobenzyl)piperidine-4-carbonitrile] is > 1000 nM; for `N#CC1(Cc2ccc(F)cc2)CCN(C(=O)c2cccnc2-c2ccnnc2)CC1` [Compound A200, 4-(4-fluorobenzyl)-1-(2-(pyridazin-4-yl)nicotinoyl)piperidine-4-carbonitrile] it is > 1000 nM. Under `Cc1ccc(CC2(C#N)CCN(C(=O)c3cccnc3-c3ccncn3)CC2)cn1` [Compound A201, 4-((6-methylpyridin-3-yl)methyl)-1-(2-(pyrimidin-4-yl)nicotinoyl)piperidine-4-carbonitrile] stands < 100 nM; under `COc1ccc(CC2(C#N)CCN(C(=O)c3cccnc3-c3ccncn3)CC2)cn1` [Compound A202, 4-((6-methoxypyridin-3-yl)methyl)-1-(2-(pyrimidin-4-yl)nicotinoyl)piperidine-4-carbonitrile], < 100 nM. Under `Cc1ncc(CC2(C#N)CCN(C(=O)c3cccnc3-c3ccncn3)CC2)cn1` [Compound A203, 4-((2-methylpyrimidin-5-yl)methyl)-1-(2-(pyrimidin-4-yl)nicotinoyl)piperidine-4-carbonitrile] stands > 1000 nM; under `CS(=O)(=O)c1ccc(CC2(C#N)CCN(C(=O)c3cccnc3-c3ccncn3)CC2)cc1` [Compound A204, 4-(4-(methylsulfonyl)benzyl)-1-(2-(pyrimidin-4-yl)nicotinoyl)piperidine-4-carbonitrile], 100 to 1000 nM. With `N#CC1(Cc2ccc(Cl)cc2F)CCN(C(=O)c2cccnc2-c2ccncn2)CC1` [Compound A205, 4-(4-chloro-2-fluorobenzyl)-1-(2-(pyrimidin-4-yl)nicotinoyl)piperidine-4-carbonitrile], the IC50 is < 100 nM. On to `N#CC1(Cc2ccc(F)c(F)c2)CCN(C(=O)c2cccnc2-c2ccncn2)CC1` [Compound A206, 4-(3,4-difluorobenzyl)-1-(2-(pyrimidin-4-yl)nicotinoyl)piperidine-4-carbonitrile], for which the IC50 is < 100 nM. In the case of `N#CC1(Cc2c(F)cccc2F)CCN(C(=O)c2cccnc2-c2ccncn2)CC1` [Compound A207, 4-(2,6-difluorobenzyl)-1-(2-(pyrimidin-4-yl)nicotinoyl)piperidine-4-carbonitrile], the IC50 was < 100 nM. The figure for `CCc1ccc(CC2(C#N)CCN(C(=O)c3cccnc3-c3ccncn3)CC2)cc1` [Compound A208, 4-(4-ethylbenzyl)-1-(2-(pyrimidin-4-yl)nicotinoyl)piperidine-4-carbonitrile] is < 100 nM; for `N#CC1(Cc2cccc(F)c2F)CCN(C(=O)c2cccnc2-c2ccncn2)CC1` [Compound A209, 4-(2,3-difluorobenzyl)-1-(2-(pyrimidin-4-yl)nicotinoyl)piperidine-4-carbonitrile] it is < 100 nM; for `N#CC1(Cc2cccc(Cl)c2)CCN(C(=O)c2cccnc2-c2ccncn2)CC1` [Compound A210, 4-(3-chlorobenzyl)-1-(2-(pyrimidin-4-yl)nicotinoyl)piperidine-4-carbonitrile] it is < 100 nM.
